The record followed here is patent US12559529B2, “NPY2 receptor agonists” (Boehringer Ingelheim International GmbH, priority 2019, dated 2026).

SMILES strings stand for the structures. *1 amine or outer side, *2 acyl side, *3 side chain or, on linkers, in order; H or OH if unused. Where a SMILES comes first, the peptide text is derived from it. Side-chain parts run from the residue outwards. The star is where a group is joined. C18 diacid = O=C(O)CCCCCCCCCCCCCCCCC(=O)*; γGlu = O=C(O)[C@H](CCC(=O)[*:2])N[*:1]; Isovaleryl = CC(C)CC(=O)*; AEEA = NCCOCCOCC(=O)O

For the test, the target named is T1, Human Neuropeptide Y2 Receptor (Homo sapiens, UniProt P49146).
T1 construct: purchased CHEMICON HTS066M
T1 sequence (P49146 1-381): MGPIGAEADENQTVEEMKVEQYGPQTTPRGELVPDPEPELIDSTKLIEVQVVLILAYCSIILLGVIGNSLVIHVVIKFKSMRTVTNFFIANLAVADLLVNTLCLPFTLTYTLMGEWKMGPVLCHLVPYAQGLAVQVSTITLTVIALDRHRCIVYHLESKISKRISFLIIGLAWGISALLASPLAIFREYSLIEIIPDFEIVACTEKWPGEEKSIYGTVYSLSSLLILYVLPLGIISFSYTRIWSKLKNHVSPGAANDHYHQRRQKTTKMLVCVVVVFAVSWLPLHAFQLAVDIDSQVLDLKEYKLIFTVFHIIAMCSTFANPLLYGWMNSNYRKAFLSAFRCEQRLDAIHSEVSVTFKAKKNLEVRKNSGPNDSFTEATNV
In words: Radioligand binding competition assay (RLB). The note with it: Table 3; human 125I-PYY (1-36) 0.02 nM, Y2 receptor membranes; read-out: Ki. The essentials: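 Competition binding on human Y2 receptor membranes, 0.5 μg protein/well, in 50 mM HEPES, 5 mM MgCl2, 1 mM CaCl2, pH 7.4, 0.2% ovalbumin; peptides diluted from 1 mM DMSO stocks.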
`CC(C)CC(=O)N[C@@H](C)C(=O)N1CCC[C@H]1C(=O)N[C@@H](CCC(=O)O)C(=O)N[C@@H](CCCCNC(=O)COCCOCCNC(=O)COCCOCCNC(=O)CC[C@H](NC(=O)CCCCCCCCCCCCCCCCC(=O)O)C(=O)O)C(=O)N1CCC[C@H]1C(=O)N[C@@H](CCC(=O)O)C(=O)N[C@@H](CCC(=O)O)C(=O)N[C@@H](CC(=O)O)C(=O)N[C@@H](CO)C(=O)N[C@@H](CO)C(=O)N1CCC[C@H]1C(=O)N[C@@H](CCC(=O)O)C(=O)N[C@@H](CCC(=O)O)C(=O)N[C@@H](CC(C)C)C(=O)N[C@@H](CCC(N)=O)C(=O)N[C@@H](CCCNC(=N)N)C(=O)N[C@@H](Cc1ccc(O)cc1)C(=O)N[C@@H](Cc1ccc(O)cc1)C(=O)N[C@H](C(=O)N[C@@H](C)C(=O)N[C@@H](CC(C)C)C(=O)N[C@@H](CCCNC(=N)N)C(=O)N[C@@H](Cc1c[nH]cn1)C(=O)N[C@@H](Cc1ccc(O)cc1)C(=O)N[C@@H](Cc1ccc(O)cc1)C(=O)N[C@@H](CC(N)=O)C(=O)N[C@@H](Cc1c[nH]c2ccccc12)C(=O)N[C@@H](CC(C)C)C(=O)N[C@H](C(=O)N[C@@H](CCCNC(=N)N)C(=O)N[C@@H](CCC(N)=O)C(=O)N[C@@H](CCCNC(=N)N)C(=O)N[C@@H](Cc1ccc(O)cc1)C(N)=O)[C@@H](C)O)C(C)C` [Compound 218, N{alpha-4}-(3-methylbutanoyl)-N{epsilon-7}-[2-(2-{2-[2-(2-{2-[(4S)-4-carboxy-4-(17-carboxyheptadecanamido)butanamido]ethoxy}ethoxy)acetamido]ethoxy}ethoxy)acetamido]-[4A,7K,9E,12S,18Q,22V,23A,28Y,30W,31L]hPYY (4-36)]: the Ki was 1.49 nM.

Regarding `CC(C)CC(=O)N[C@@H](C)C(=O)N1CCC[C@H]1C(=O)N[C@@H](CCC(=O)O)C(=O)N[C@@H](CCCCNC(=O)COCCOCCNC(=O)COCCOCCNC(=O)CC[C@H](NC(=O)CCCCCCCCCCCCCCCCC(=O)O)C(=O)O)C(=O)N1CCC[C@H]1C(=O)N[C@@H](CCC(=O)O)C(=O)N[C@@H](CCC(=O)O)C(=O)N[C@@H](CCC(=O)O)C(=O)N[C@@H](C)C(=O)N[C@@H](CO)C(=O)N1CCC[C@H]1C(=O)N[C@@H](CCC(=O)O)C(=O)N[C@@H](CCC(=O)O)C(=O)N[C@@H](CC(C)C)C(=O)N[C@@H](CCC(=O)O)C(=O)N[C@@H](CCC(N)=O)C(=O)N[C@@H](Cc1ccc(O)cc1)C(=O)N[C@@H](Cc1ccc(O)cc1)C(=O)N[C@H](C(=O)N[C@@H](CO)C(=O)N[C@@H](CC(C)C)C(=O)N[C@@H](CCCNC(=N)N)C(=O)N[C@@H](Cc1c[nH]cn1)C(=O)N[C@@H](Cc1ccc(O)cc1)C(=O)N[C@@H](Cc1ccc(O)cc1)C(=O)N[C@@H](CC(N)=O)C(=O)N[C@@H](Cc1c[nH]c2ccccc12)C(=O)N[C@@H](CC(C)C)C(=O)N[C@H](C(=O)N[C@@H](CCCNC(=N)N)C(=O)N[C@@H](CCC(N)=O)C(=O)N[C@@H](CCCNC(=N)N)C(=O)N[C@@H](Cc1ccc(O)cc1)C(N)=O)[C@@H](C)O)C(C)C` [Compound 170, N{alpha-4}-(3-methylbutanoyl)-N{epsilon-7}-[2-(2-{2-[2-(2-{2-[(4S)-4-carboxy-4-(17-carboxyheptadecanamido)butanamido]ethoxy}ethoxy)acetamido]ethoxy}ethoxy)acetamido]-[4A,7K,9E,11E,18E,19Q,22V,28Y,30W,31L]hPYY (4-36)] (Isovaleryl-APEK([AEEA-AEEA-γGlu-C18 diacid])PEEEASPEELEQYYVSLRHYYNWLTRQRY-NH2), the Ki came to 12.3 nM.

On to `CC(C)CC(=O)N[C@@H](C)C(=O)N1CCC[C@H]1C(=O)N[C@@H](C)C(=O)N[C@@H](CCCCNC(=O)COCCOCCNC(=O)COCCOCCNC(=O)CC[C@H](NC(=O)CCCCCCCCCCCCCCCCC(=O)O)C(=O)O)C(=O)N1CCC[C@H]1C(=O)N[C@@H](CCC(=O)O)C(=O)N[C@@H](C)C(=O)N[C@@H](CC(=O)O)C(=O)N[C@@H](C)C(=O)N[C@@H](CO)C(=O)N1CCC[C@H]1C(=O)N[C@@H](CCC(=O)O)C(=O)N[C@@H](CCC(=O)O)C(=O)N[C@@H](CC(C)C)C(=O)N[C@@H](CCC(N)=O)C(=O)N[C@@H](CCCNC(=N)N)C(=O)N[C@@H](Cc1ccc(O)cc1)C(=O)N[C@@H](Cc1ccc(O)cc1)C(=O)N[C@H](C(=O)N[C@@H](CCC(=O)O)C(=O)N[C@@H](CC(C)C)C(=O)N[C@@H](CCCNC(=N)N)C(=O)N[C@@H](Cc1c[nH]cn1)C(=O)N[C@@H](Cc1ccc(O)cc1)C(=O)N[C@@H](Cc1ccc(O)cc1)C(=O)N[C@@H](CC(N)=O)C(=O)N[C@@H](Cc1c[nH]c2ccccc12)C(=O)N[C@@H](CC(C)C)C(=O)N[C@H](C(=O)N[C@@H](CCCNC(=N)N)C(=O)N[C@@H](CCC(N)=O)C(=O)N[C@@H](CCCNC(=N)N)C(=O)N[C@@H](Cc1ccc(O)cc1)C(N)=O)[C@@H](C)O)C(C)C` [Compound 197, N{alpha-4}-(3-methylbutanoyl)-N{epsilon-7}-[2-(2-{2-[2-(2-{2-[(4S)-4-carboxy-4-(17-carboxyheptadecanamido)butanamido]ethoxy}ethoxy)acetamido]ethoxy}ethoxy)acetamido]-[4A,6A,7K,9E,10A,18Q,22V,23E,28Y,30W,31L]hPYY (4-36)], for which the Ki turned out to be 0.87 nM.

Take `CC(C)CC(=O)N[C@@H](C)C(=O)N1CCC[C@H]1C(=O)N[C@@H](CCC(=O)O)C(=O)N[C@@H](CCCCNC(=O)COCCOCCNC(=O)COCCOCCNC(=O)CC[C@H](NC(=O)CCCCCCCCCCCCCCCCC(=O)O)C(=O)O)C(=O)N1CCC[C@H]1C(=O)N[C@@H](CCC(=O)O)C(=O)N[C@@H](CCC(=O)O)C(=O)N[C@@H](CCC(=O)O)C(=O)N[C@@H](C)C(=O)N[C@@H](CO)C(=O)N1CCC[C@H]1C(=O)N[C@@H](CCC(=O)O)C(=O)N[C@@H](CCC(=O)O)C(=O)N[C@@H](CC(C)C)C(=O)N[C@@H](CCC(N)=O)C(=O)N[C@@H](CCCNC(=N)N)C(=O)N[C@@H](Cc1ccc(O)cc1)C(=O)N[C@@H](Cc1ccc(O)cc1)C(=O)N[C@H](C(=O)N[C@@H](C)C(=O)N[C@@H](CC(C)C)C(=O)N[C@@H](CCCNC(=N)N)C(=O)N[C@@H](Cc1c[nH]cn1)C(=O)N[C@@H](Cc1ccc(O)cc1)C(=O)N[C@@H](Cc1ccc(O)cc1)C(=O)N[C@@H](CC(N)=O)C(=O)N[C@@H](Cc1c[nH]c2ccccc12)C(=O)N[C@@H](CC(C)C)C(=O)N[C@H](C(=O)N[C@@H](CCCNC(=N)N)C(=O)N[C@@H](CCC(N)=O)C(=O)N[C@@H](CCCNC(=N)N)C(=O)N[C@@H](Cc1ccc(O)cc1)C(N)=O)[C@@H](C)O)C(C)C` [Compound 169, N{alpha-4}-(3-methylbutanoyl)-N{epsilon-7}-[2-(2-{2-[2-(2-{2-[(4S)-4-carboxy-4-(17-carboxyheptadecanamido)butanamido]ethoxy}ethoxy)acetamido]ethoxy}ethoxy)acetamido]-[4A,7K,9E,11E,18Q,22V,23A,28Y,30W,31L]hPYY (4-36)]: the inhibition constant (Ki) stood at 2.34 nM.

Consider `CC(C)CC(=O)N[C@@H](C)C(=O)N1CCC[C@H]1C(=O)N[C@@H](CCC(=O)O)C(=O)N[C@@H](CCCCNC(=O)COCCOCCNC(=O)COCCOCCNC(=O)CC[C@H](NC(=O)CCCCCCCCCCCCCCCCC(=O)O)C(=O)O)C(=O)N1CCC[C@H]1C(=O)N[C@@H](CCC(=O)O)C(=O)N[C@@H](C)C(=O)N[C@@H](CC(=O)O)C(=O)N[C@@H](C)C(=O)N[C@@H](CO)C(=O)N1CCC[C@H]1C(=O)N[C@@H](CCC(=O)O)C(=O)N[C@@H](CCC(=O)O)C(=O)N[C@@H](CC(C)C)C(=O)N[C@@H](CCC(N)=O)C(=O)N[C@@H](CCC(N)=O)C(=O)N[C@@H](Cc1ccc(O)cc1)C(=O)N[C@@H](Cc1ccc(O)cc1)C(=O)N[C@H](C(=O)N[C@@H](CO)C(=O)N[C@@H](CC(C)C)C(=O)N[C@@H](CCCNC(=N)N)C(=O)N[C@@H](Cc1c[nH]cn1)C(=O)N[C@@H](Cc1ccc(O)cc1)C(=O)N[C@@H](Cc1ccc(O)cc1)C(=O)N[C@@H](CC(N)=O)C(=O)N[C@@H](Cc1c[nH]c2ccccc12)C(=O)N[C@@H](CC(C)C)C(=O)N[C@H](C(=O)N[C@@H](CCCNC(=N)N)C(=O)N[C@@H](CCC(N)=O)C(=O)N[C@@H](CCCNC(=N)N)C(=O)N[C@@H](Cc1ccc(O)cc1)C(N)=O)[C@@H](C)O)C(C)C` [Compound 19, N{alpha-4}-(3-methylbutanoyl)-N{epsilon-7}-[2-(2-{2-[2-(2-{2-[(4S)-4-carboxy-4-(17-carboxyheptadecanamido)butanamido]ethoxy}ethoxy)acetamido]ethoxy}ethoxy)acetamido]-[4A,7K,9E,10A,18Q,19Q,22V,28Y,30W,31L]hPYY (4-36)] (Isovaleryl-APEK([AEEA-AEEA-γGlu-C18 diacid])PEADASPEELQQYYVSLRHYYNWLTRQRY-NH2), for which the Ki amounted to 0.39 nM.

As usually defined, the Ki is a dissociation constant, usually derived from enzyme kinetics or from competition with a known ligand.
